Experimental data published in ChEMBL document CHEMBL1136678, “Novel indole-based inhibitors of IMPDH: introduction of hydrogen bond acceptors at indole C-3” (Bioorg Med Chem Lett, 2003).

Tests used:
[1] = molecular target: Inosine-5'-monophosphate dehydrogenase 2 (Homo sapiens, UniProt P12268); assay: Inhibition of 5'-inosine monophosphate dehydrogenase type II (IMPDH II)
[2] = test system: CCRF-CEM; assay: Inhibition of CEM T-cell proliferation; assay type: functional, cell-based; conditions: Homo sapiens
[3] = molecular target: Inosine-5'-monophosphate dehydrogenase 1 (Homo sapiens, UniProt P20839); assay: Inhibition of 5'-inosine monophosphate dehydrogenase type I (IMPDH I)
Chain of Inosine-5'-monophosphate dehydrogenase 1 (P20839 whole entry): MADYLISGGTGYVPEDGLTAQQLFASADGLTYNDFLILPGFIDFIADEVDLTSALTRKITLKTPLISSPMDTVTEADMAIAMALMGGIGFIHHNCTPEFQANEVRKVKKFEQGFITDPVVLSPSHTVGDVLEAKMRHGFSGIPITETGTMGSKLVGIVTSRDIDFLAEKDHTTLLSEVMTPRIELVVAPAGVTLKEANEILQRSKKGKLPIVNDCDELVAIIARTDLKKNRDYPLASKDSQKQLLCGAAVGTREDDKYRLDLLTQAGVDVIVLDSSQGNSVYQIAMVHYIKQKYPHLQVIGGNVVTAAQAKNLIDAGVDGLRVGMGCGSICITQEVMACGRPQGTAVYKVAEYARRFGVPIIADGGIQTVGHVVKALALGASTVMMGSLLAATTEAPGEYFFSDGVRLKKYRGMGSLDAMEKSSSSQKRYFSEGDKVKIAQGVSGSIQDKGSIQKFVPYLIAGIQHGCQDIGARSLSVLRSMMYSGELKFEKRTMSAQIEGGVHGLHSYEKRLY

IC50 [1] [nM]	IC50 [2] [nM]	IC50 [3] [nM]	SMILES
> 1000			CCOC(=O)c1c(-c2ccccc2)[nH]c2cc(OC)c(-c3cnco3)cc12
500	> 10000		COc1cc2[nH]c(-c3ccccc3)cc2cc1-c1cnco1
230			COc1cc2[nH]c(-c3ccccc3)c(C=O)c2cc1-c1cnco1
600			COc1cc2[nH]c(Cc3ccccc3)cc2cc1-c1cnco1
360			COc1cc2[nH]c(Cc3ccccc3)c(C=O)c2cc1-c1cnco1
220			COc1cc2[nH]c(Cc3ccccc3)c(C#N)c2cc1-c1cnco1
130			COc1cc2[nH]c(-c3ccccc3)c(C#N)c2cc1-c1cnco1
64			COc1cc2[nH]c(-c3csc4ccccc34)c(C#N)c2cc1-c1cnco1
150			COc1cc2[nH]c3c(c2cc1-c1cnco1)CCCC(=O)C3
500			COc1cc2[nH]c(-c3csc4ccccc34)cc2cc1-c1cnco1
30	550	160	COc1cc2[nH]c(-c3csc4ccccc34)c(C=O)c2cc1-c1cnco1
290			COc1cc2[nH]c3c(c2cc1-c1cnco1)CC(=O)CC3
